Experimental data taken from patent US20040029910A1, “Protoberberine derivatives which inhibit activity of the mitogen-activated protein kinase” (priority 2000, published 2004).

What was measured:
[1] = tested on: knock-out mutant of byr2 in Ras-Byr2 pathway (SPSU); experiment: Growth (cell number) of byr2 knock-out mutant; format: cell-based, Schizosaccharomyces pombe
Experimental: (§1) To investigate the effect of protoberberine derivatives on the growth of cells, the cells of each strain were cultured in rich medium YE^AU to exponential phase(5×10^7 cells/mL). These cells were transferred to YE^AU medium and cultured for 12 hours. Then cell number was measured every 3 hours.

[2] = tested on: knock-out mutant of wis1 (JM544); experiment: Growth (cell number) of wis1 knock-out mutant; format: cell-based, Schizosaccharomyces pombe; settings: for inhibition of the activity of Wis1 kinase, concluded from effects on knock-out mutants: conclusion from growth of knock-out mutants; for inhibition of the knock-out mutant of wis1 (in words): table 5
Experimental: To investigate the effect of protoberberine derivatives on the growth of cells, the cells of each strain were cultured in rich medium YE^AU to exponential phase(5×10^7 cells/mL). […]

[3] = tested on: KGY246 cells, wild type Saccharomyces pombe; experiment: Minimum inhibitory concentration (MIC) on Schizosaccharomyces pombe; format: cell-based; settings: YE^AU medium; minimal concentration at which cell number stayed constant; 10% ethanol as solvent
Experimental: Measurement of Minimum Inhibitory Concentration(MIC) of Protoberberine Derivatives on Schizosaccharomyces pombe
KGY246 cells, wild type Saccharomyces pombe, were cultured in rich media YE^AU (yeast extract, peptone, malt extract, dextrose, agar: pH 6.2)containing 0.75 mg/L adenine and uracil to exponential phase. To determine minimum inhibitory concentration of each protoproberberine derivative, cells in exponential phase were transferred to YE^AU medium containing variable concentrations of protoberberine derivatives and cell number was measured every 3 hour. Thereafter, the minimal concentration on which cell number was maintained constantly was determined as minimum inhibitory concentration. The minimum inhibitory concentrations of protoberberine derivatives 13-(4-t-butylbenzyl)berberine chloride, 13-(4-(t-butyldimetylsilyloxy)benzyl)berberine chloride and 2,3,9,10-tetrapropoxyprotoberberine iodide of the present invention were 20 ug/mL, 7 ug/mL and 20 ug/mL respectively. To minimize inhibition by solvent itself, 10% ethanol was used as a solvent of protoberberine derivatives. The processes of cell culture and measurement of cell number described above were repeated using 13-benzylberberine iodide, 13-(4-chlorobenzyl)berberine iodide, 13-(3-bromobenzyl)berberine iodide, 13-(2,3-dichlorobenzyl) berberine chloride, 13-(2-chloro-6-fluorobenzyl)berberine chloride, 13-(4-fluoro-2-trifluoromethylbenzyl)berberine chloride, 13-(2,3,4,5,6-pentafluorobenzyl)berberine chloride, 13-(2,3,5,6-tetrafluoro-4-trifluoromethylbenzyl) berberine chloride, 13-(4-methylbenzyl)berberine chloride, 13-(2,4-dimethylbenzyl)berberine chloride, 13-(4-methyl-3-nitrobenzyl)berberine chloride, 13-(3-trifluoromethyl benzyl)berberine chloride, 13-(4-methoxybenzyl)berberine chloride, 13-(4-trifluoromethoxybenzyl)berberine chloride, 13-(4-methoxycarbonylbenzyl)berberine chloride, 13-(4-i-propylbenzyl)berberine chloride. These compounds also had the minimum concentration of inhibition at the concentration of 18-22 ug/mL.

[4] = tested on: knock-out mutant of spc1 (KS1366); experiment: Growth (cell number) of spc1 knock-out mutant; format: cell-based, Schizosaccharomyces pombe; settings: for inhibition of the knock-out mutant of spc1 (in words): table 6
Experimental: To investigate the effect of protoberberine derivatives on the growth of cells, the cells of each strain were cultured in rich medium YE^AU to exponential phase(5×10^7 cells/mL). […] Then cell number was measured every 3 hours.

[5] = tested on: knock-out mutant of wis4 (ED1292); experiment: Growth (cell number) of wis4 knock-out mutant; format: cell-based, Schizosaccharomyces pombe; settings: Table 8, wis4 knock-out
Experimental: as §1
(§2) The knock-out mutant of win1 and wis4 was cultured and treated with 13-(4-t-butylbenzyl)berberine chloride, 13-(4-(t-butyldimethylsilyloxy)benzyl)berberine chloride or 2,3,9,10-tetrapropoxyprotoberberine iodide of the compounds 13-benzylberberine iodide, 13-(4-chloro benzyl)berberine iodide, 13-(3-bromobenzyl)berberine iodide, 13-(2,3-dichlorobenzyl)berberine chloride, 13-(2-chloro-6-fluorobenzyl)berberine chloride, 13-(4-fluoro-2-trifluoromethylbenzyl)berberine chloride, 13-(2,3,4,5,6-pentafluorobenzyl)berberine chloride, 13-(2,3,5,6-tetra fluoro-4-trifluoromethylbenzyl)berberine chloride, 13-(4-methylbenzyl)berberine chloride, 13-(2,4-dimethylbenzyl) berberine chloride, 13-(4-methyl-3-nitrobenzyl)berberine chloride, 13-(3-trifluoromethylbenzyl)berberine chloride, 13-(4-methoxybenzyl)berberine chloride, 13-(4-trifluoro methoxybenzyl)berberine chloride, 13-(4-methoxycarbonyl benzyl)berberine chloride, 13-(4-t-butylbenzyl)berberine chloride, 13-(4-1-propylbenzyl) berberine chloride, 13-(4-(t-butyldimethylsilyloxy)benzyl) berberine chloride, 13-(4-t-butylbenzyl)palmatine iodide, 13-(4-(t-butyldimethyl silyloxy)benzyl)palmatine chloride and 2,3,9,10-tetra propoxyprotoberberine iodide.

[6] = tested on: knock-out mutant of win1 (ED1388); experiment: Growth (cell number) of win1 knock-out mutant; format: cell-based, Schizosaccharomyces pombe; settings: Table 7, win1 knock-out
Experimental: as §1, §2

[7] = tested on: knock-out mutant of spm1 in Mhk1-Spm1 pathway (TZs69); experiment: Growth (cell number) of spm1 knock-out mutant; format: cell-based, Schizosaccharomyces pombe
Experimental: as §1

[8] = Table 3, byr2 knock-out, time 12, miconazole 3 ug/mL
[9] = Table 3, byr2 knock-out, time 15, miconazole 3 ug/mL
[10] = Table 3, byr2 knock-out, time 18, miconazole 3 ug/mL
[11] = Table 3, byr2 knock-out, time 21, miconazole 3 ug/mL
[12] = Table 3, byr2 knock-out, time 24, miconazole 3 ug/mL
[13] = Table 5, wis1 knock-out, time 12, miconazole 3 ug/mL
[14] = Table 5, wis1 knock-out, time 15, miconazole 3 ug/mL
[15] = Table 5, wis1 knock-out, time 18, miconazole 3 ug/mL
[16] = Table 5, wis1 knock-out, time 21, miconazole 3 ug/mL
[17] = Table 5, wis1 knock-out, time 24, miconazole 3 ug/mL
[18] = Table 6, spc1 knock-out, time 15, miconazole 3 ug/mL
[19] = Table 6, spc1 knock-out, time 18, miconazole 3 ug/mL
[20] = Table 6, spc1 knock-out, time 21, miconazole 3 ug/mL
[21] = Table 6, spc1 knock-out, time 24, miconazole 3 ug/mL
[22] = Table 4, spm1 knock-out, time 12, miconazole 3 ug/mL
[23] = Table 4, spm1 knock-out, time 15, miconazole 3 ug/mL
[24] = Table 4, spm1 knock-out, time 18, miconazole 3 ug/mL
[25] = Table 4, spm1 knock-out, time 21, miconazole 3 ug/mL
[26] = Table 4, spm1 knock-out, time 24, miconazole 3 ug/mL

`CCCOc1cc2c(cc1OCCC)-c1cc3ccc(OCCC)c(OCCC)c3c[n+]1CC2.[I-]` [2,3,9,10-tetrapropoxyprotoberberine iodide] was tested, and the cell number [1, 8] was 220, the cell number [1, 9] was 207 and the cell number [1, 10] was 185. The cell number [1, 11] was 167, the cell number [1, 12] was 155 and the cell number [2, 13] was 164. For the same molecule, the cell number [2, 14] was 325, the cell number [2, 15] was 502 and the cell number [2, 16] was 1041. For the same molecule, the cell number [2, 17] was 1574, the “inhibition of the activity of Wis1 kinase, concluded from effects on knock-out mutants” value [2] was “inhibit” and the “inhibition of the knock-out mutant of wis1 (in words)” value (shortened to “inhibition … of wis1 (in words)”) [2] was “not inhibited”. The minimum inhibitory concentration [3] was 20 µg/mL, the cell number ([4]; Table 6, spc1 knock-out, time 12, miconazole 3 ug/mL) was 201 and the cell number [4, 18] was 382. For the same molecule, the cell number [4, 19] was 676, the cell number [4, 20] was 1232 and the cell number [4, 21] was 1634. For the same molecule, the “inhibition of the activity of Spc1 kinase, concluded from effects on knock-out mutants” value ([4]; conclusion from growth of knock-out mutants) was “inhibit”, the “inhibition of the knock-out mutant of spc1 (in words)” value (“inhibition … of spc1 (in words)” for short) [4] was “completely inhibited” and the cell number ([5]; time 13) was 96. The cell number ([5]; time 16) was 113, the cell number ([5]; time 19) was 265 and the cell number ([5]; time 22) was 645. For the same molecule, the cell number ([5]; time 25) was 1250, the cell number ([6]; time 13) was 102 and the cell number ([6]; time 16) was 210. For the same molecule, the cell number ([6]; time 19) was 423, the cell number ([6]; time 22) was 750 and the cell number ([6]; time 25) was 1575. The cell number [7, 22] was 117, the cell number [7, 23] was 4 and the cell number [7, 24] was 7. The cell number [7, 25] was 165 and the cell number [7, 26] was 228.

`COc1ccc2c(Cc3ccc(C(C)(C)C)cc3)c3[n+](cc2c1OC)CCc1cc2c(cc1-3)OCO2.[Cl-]` [13-(4-t-butylbenzyl)berberine chloride] gave a cell number [1, 8] of 156, a cell number [1, 9] of 150 and a cell number [1, 10] of 147. The cell number [1, 11] was 136, the cell number [1, 12] was 128 and the cell number [2, 13] was 154. It also gave a cell number [2, 14] of 319, a cell number [2, 15] of 538 and a cell number [2, 16] of 1265. The cell number [2, 17] was 1788, the “inhibition of the activity of Wis1 kinase, concluded from effects on knock-out mutants” value [2] was “inhibit” and the “inhibition … of wis1 (in words)” value [2] was “not inhibited”. The minimum inhibitory concentration [3] was 20 µg/mL, the cell number [4, 18] was 299 and the cell number [4, 19] was 488. For the same molecule, the cell number [4, 20] was 874, the cell number [4, 21] was 1083 and the “inhibition … of spc1 (in words)” value [4] was “partially inhibited”. The cell number ([5]; time 13) was 24, the cell number ([5]; time 16) was 45 and the cell number ([5]; time 19) was 36. For the same molecule, the cell number ([5]; time 22) was 23, the cell number ([5]; time 25) was 19 and the cell number ([6]; time 13) was 28. The cell number ([6]; time 16) was 26, the cell number ([6]; time 19) was 17 and the cell number ([6]; time 22) was 37. It also gave a cell number ([6]; time 25) of 13, a cell number [7, 22] of 89 and a cell number [7, 23] of 113. It also gave a cell number [7, 24] of 131, a cell number [7, 25] of 118 and a cell number [7, 26] of 125.

`COc1ccc2c(Cc3ccc(O[Si](C)(C)C(C)(C)C)cc3)c3[n+](cc2c1OC)CCc1cc2c(cc1-3)OCO2.[Cl-]` [13-(4-(t-butyldimethylsilyloxy)benzyl)berberine chloride] was tested, and the cell number ([1]; Table 2, byr2 knock-out, time 14) was 34, the cell number ([1]; Table 2, byr2 knock-out, time 17) was 72 and the cell number ([1]; Table 2, byr2 knock-out, time 20) was 156. For the same molecule, the cell number ([1]; Table 2, byr2 knock-out, time 23) was 292, the cell number ([2]; Table 2, wis1 knock-out, time 14) was 257 and the cell number ([2]; Table 2, wis1 knock-out, time 17) was 665. The cell number ([2]; Table 2, wis1 knock-out, time 20) was 1355, the cell number ([2]; Table 2, wis1 knock-out, time 23) was 3100 and the “inhibition of the activity of Wis1 kinase, concluded from effects on knock-out mutants” value [2] was “inhibit”. For the same molecule, the “inhibition … of wis1 (in words)” value [2] was “not inhibited”, the minimum inhibitory concentration [3] was 7 µg/mL and the cell number ([4]; Table 2, spc1 knock-out, time 14) was 57. For the same molecule, the cell number ([4]; Table 2, spc1 knock-out, time 17) was 90, the cell number ([4]; Table 2, spc1 knock-out, time 20) was 173 and the cell number ([4]; Table 2, spc1 knock-out, time 23) was 210. The “inhibition … of spc1 (in words)” value [4] was “not inhibited at all”, the cell number ([5]; time 13) was 37 and the cell number ([5]; time 16) was 52. For the same molecule, the cell number ([5]; time 19) was 25, the cell number ([5]; time 22) was 36 and the cell number ([5]; time 25) was 23. The cell number ([6]; time 13) was 31, the cell number ([6]; time 16) was 16 and the cell number ([6]; time 19) was 16. For the same molecule, the cell number ([6]; time 22) was 26, the cell number ([6]; time 25) was 33 and the cell number ([7]; Table 2, Spm1 knock-out, time 14) was 55. It also gave a cell number ([7]; Table 2, Spm1 knock-out, time 17) of 94, a cell number ([7]; Table 2, Spm1 knock-out, time 20) of 266 and a cell number ([7]; Table 2, Spm1 knock-out, time 23) of 450.
